From PubChem BioAssay AID2060497 (Molecular Pharmacology Branch, DTP, NCI, 2025)

Test system: 317291-083-R-J1-PDC complex spheroids, viability
Experiment: Anticancer human tumor 317291-083-R-J1-PDC patient-derived soft tissue sarcoma cell line growth inhibition [GQUAD]
Details: for IC50: curve of first compound; for viability, T/C: stronger effect = lower value; active = viability on the fitted dose curve at most 10% of control; inactive = the rest
Summary of the method: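 Viability of tumor cells grown as complex spheroids with endothelial and stromal cells, exposed to drug combinations. Top concentration at or near clinical Cmax (else 10 microM), diluted in half-log increments.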

[1] = second compound 0.0316 µM, first compound 0.0316 µM
[2] = second compound 0.0316 µM, first compound 0.1 µM
[3] = second compound 0.0316 µM, first compound 0.316 µM
[4] = second compound 0.0316 µM, first compound 1 µM
[5] = second compound 0.0316 µM, first compound 3.16 µM
[6] = second compound 0.0316 µM, first compound 10 µM
[7] = second compound 0.1 µM, first compound 0.0316 µM
[8] = second compound 0.1 µM, first compound 0.1 µM
[9] = second compound 0.1 µM, first compound 0.316 µM
[10] = second compound 0.1 µM, first compound 1 µM
[11] = second compound 0.1 µM, first compound 3.16 µM
[12] = second compound 0.1 µM, first compound 10 µM
[13] = second compound 0.316 µM, first compound 0.0316 µM
[14] = second compound 0.316 µM, first compound 0.1 µM
[15] = second compound 0.316 µM, first compound 0.316 µM
[16] = second compound 0.316 µM, first compound 1 µM
[17] = second compound 0.316 µM, first compound 3.16 µM
[18] = second compound 0.316 µM, first compound 10 µM
[19] = second compound 1 µM, first compound 0.0316 µM
[20] = second compound 1 µM, first compound 0.1 µM
[21] = second compound 1 µM, first compound 0.316 µM
[22] = second compound 1 µM, first compound 1 µM
[23] = second compound 1 µM, first compound 3.16 µM
[24] = second compound 1 µM, first compound 10 µM
[25] = second compound 3.16 µM, first compound 0.0316 µM
[26] = second compound 3.16 µM, first compound 0.1 µM
[27] = second compound 3.16 µM, first compound 0.316 µM
[28] = second compound 3.16 µM, first compound 1 µM
[29] = second compound 3.16 µM, first compound 3.16 µM
[30] = second compound 3.16 µM, first compound 10 µM
[31] = second compound 10 µM, first compound 0.0316 µM
[32] = second compound 10 µM, first compound 0.1 µM
[33] = second compound 10 µM, first compound 0.316 µM
[34] = second compound 10 µM, first compound 1 µM
[35] = second compound 10 µM, first compound 3.16 µM
[36] = second compound 10 µM, first compound 10 µM
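Also: spheroids exposed to compounds for one week before readout.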
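For viability, T/C in this document: percent viability relative to DMSO vehicle wells taken as 100%.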

COc1cccc2c1C(=O)c1c(O)c3c(c(O)c1C2=O)CC(O)(C(=O)CO)CC3OC1CC(N)C(O)C(C)O1 (stereo not drawn) + CN(C)c1ccc(Nc2c3ccc(NC(=O)CCN4CCCC4)cc3nc3cc(NC(=O)CCN4CCCC4)ccc23)cc1
< 0.0316 µM: IC50 (second compound 1 µM) | IC50 (second compound 3.16 µM) | IC50 (second compound 10 µM)
inactive: viability, T/C [1] 82.7% | viability, T/C [2] 32.4% | viability, T/C [3] 21.1% | viability, T/C [7] 64.1% | viability, T/C [8] 41.8% | viability, T/C [9] 22.2% | viability, T/C [10] 12.1% | viability, T/C [13] 64.2% | viability, T/C [14] 35.1% | viability, T/C [15] 23.6% | viability, T/C [19] 29.1% | viability, T/C [20] 18.6% | viability, T/C [21] 14.9% | viability, T/C [25] 28.8% | viability, T/C [26] 15.1% | viability, T/C [31] 9.63%
0.0717 µM: IC50 (second compound 0.0316 µM)
0.0574 µM: IC50 (second compound 0.316 µM)
0.0653 µM: IC50 (second compound 0.1 µM)
active: viability, T/C [4] 13.2% | viability, T/C [5] 0.97% | viability, T/C [6] 0.41% | viability, T/C [11] 1.05% | viability, T/C [12] 0.35% | viability, T/C [16] 8.77% | viability, T/C [17] 1.59% | viability, T/C [18] 0.73% | viability, T/C [22] 3.06% | viability, T/C [23] 0.9% | viability, T/C [24] 0.65% | viability, T/C [27] 12.1% | viability, T/C [28] 4.09% | viability, T/C [29] 0.51% | viability, T/C [30] 0.86% | viability, T/C [32] 7.93% | viability, T/C [33] 3.54% | viability, T/C [34] 1.41% | viability, T/C [35] 1.22% | viability, T/C [36] 0.51%

Nc1ccn(C2OC(CO)C(O)C2(F)F)c(=O)n1 (stereo not drawn) + CN(C)c1ccc(Nc2c3ccc(NC(=O)CCN4CCCC4)cc3nc3cc(NC(=O)CCN4CCCC4)ccc23)cc1
0.0377 µM: IC50 (second compound 0.1 µM)
active: viability, T/C [16] 9.85% | viability, T/C [17] 9.6% | viability, T/C [18] 8.28% | viability, T/C [22] 7.35% | viability, T/C [23] 7.21% | viability, T/C [24] 7.95% | viability, T/C [26] 7.01% | viability, T/C [27] 6.98% | viability, T/C [28] 4.89% | viability, T/C [29] 4.18% | viability, T/C [30] 5.05% | viability, T/C [32] 3.73% | viability, T/C [33] 1.83% | viability, T/C [34] 4.43% | viability, T/C [35] 2.4% | viability, T/C [36] 2.72%
0.0445 µM: IC50 (second compound 0.0316 µM)
< 0.0316 µM: IC50 (second compound 0.316 µM) | IC50 (second compound 1 µM) | IC50 (second compound 3.16 µM) | IC50 (second compound 10 µM)
inactive: viability, T/C [1] 62.2% | viability, T/C [2] 21.4% | viability, T/C [3] 12.5% | viability, T/C [4] 11.5% | viability, T/C [5] 13.7% | viability, T/C [6] 11.4% | viability, T/C [7] 54.9% | viability, T/C [8] 23.9% | viability, T/C [9] 13.7% | viability, T/C [10] 10.9% | viability, T/C [11] 10.9% | viability, T/C [12] 9.57% | viability, T/C [13] 44.9% | viability, T/C [14] 27.4% | viability, T/C [15] 11.9% | viability, T/C [19] 26.9% | viability, T/C [20] 27.8% | viability, T/C [21] 10.5% | viability, T/C [25] 15.6% | viability, T/C [31] 10.3%

O=C(NO)c1cnc(N2CCN(S(=O)(=O)c3ccc4ccccc4c3)CC2)nc1 + CN(C)c1ccc(Nc2c3ccc(NC(=O)CCN4CCCC4)cc3nc3cc(NC(=O)CCN4CCCC4)ccc23)cc1
active: viability, T/C [3] 5.38% | viability, T/C [4] 0.53% | viability, T/C [5] 0.02% | viability, T/C [6] 0.56% | viability, T/C [9] 7.56% | viability, T/C [10] 0.08% | viability, T/C [11] 0.71% | viability, T/C [12] 0.06% | viability, T/C [15] 5.83% | viability, T/C [16] 0.06% | viability, T/C [17] 0.09% | viability, T/C [18] 0.1% | viability, T/C [21] 1.87% | viability, T/C [22] 0.1% | viability, T/C [23] 0.06% | viability, T/C [24] 0.08% | viability, T/C [26] 1.33% | viability, T/C [27] 0.19% | viability, T/C [28] 0.07% | viability, T/C [29] 0.12% | viability, T/C [30] 0.09% | viability, T/C [31] 1.1% | viability, T/C [32] 0.76% | viability, T/C [33] 0.24% | viability, T/C [34] 0.36% | viability, T/C [35] 0.28% | viability, T/C [36] 0.21%
0.12 µM: IC50 (second compound 0.0316 µM)
< 0.0316 µM: IC50 (second compound 1 µM) | IC50 (second compound 3.16 µM) | IC50 (second compound 10 µM)
0.134 µM: IC50 (second compound 0.1 µM)
inactive: viability, T/C [1] 102% | viability, T/C [2] 58.3% | viability, T/C [7] 97.1% | viability, T/C [8] 64.3% | viability, T/C [13] 90.5% | viability, T/C [14] 39.5% | viability, T/C [19] 38.2% | viability, T/C [20] 18.5% | viability, T/C [25] 10.9%
0.0789 µM: IC50 (second compound 0.316 µM)

O=c1[nH]cc(F)c(=O)[nH]1 + CN(C)c1ccc(Nc2c3ccc(NC(=O)CCN4CCCC4)cc3nc3cc(NC(=O)CCN4CCCC4)ccc23)cc1
2.44 µM: IC50 (second compound 0.1 µM)
< 0.0316 µM: IC50 (second compound 3.16 µM) | IC50 (second compound 10 µM)
inactive: viability, T/C [1] 91.6% | viability, T/C [2] 83.3% | viability, T/C [3] 101% | viability, T/C [4] 74.3% | viability, T/C [5] 43.5% | viability, T/C [6] 38.5% | viability, T/C [7] 110% | viability, T/C [8] 106% | viability, T/C [9] 103% | viability, T/C [10] 69.7% | viability, T/C [11] 46.2% | viability, T/C [12] 36.6% | viability, T/C [13] 89.4% | viability, T/C [14] 74.7% | viability, T/C [15] 83.2% | viability, T/C [16] 56.4% | viability, T/C [17] 42.1% | viability, T/C [18] 29.5% | viability, T/C [19] 53.2% | viability, T/C [20] 43.2% | viability, T/C [21] 51.1% | viability, T/C [22] 21.3% | viability, T/C [23] 29.4% | viability, T/C [24] 23.3% | viability, T/C [25] 36.6% | viability, T/C [26] 27.3% | viability, T/C [27] 35.1% | viability, T/C [28] 26.8% | viability, T/C [29] 27.2% | viability, T/C [30] 22.6%
1.76 µM: IC50 (second compound 0.316 µM)
2.32 µM: IC50 (second compound 0.0316 µM)
active: viability, T/C [31] 7.27% | viability, T/C [32] 5.52% | viability, T/C [33] 17% | viability, T/C [34] 11.3% | viability, T/C [35] 9.24% | viability, T/C [36] 7.86%
0.0316 µM: IC50 (second compound 1 µM)
